Source: US20240041877A1, “DOSAGE REGIME AND METHOD FOR TREATING PULMONARY ARTERIAL HYPERTENSION” (Altavant Sciences GmbH, priority 2019, published 2024)

Assay: Study KAR5585-101 Part 1 (SAD): plasma pharmacokinetics after a single oral dose of KAR5585, fasting and fed (incl. dose proportionality and food effect)
Conditions: for AUC(0-inf) / AUC / concentration at 12 h / Cmax / AUC(0-t) / half-life / Tmax: human, plasma, po; for AUC: AUC0-tau
[1] = 400 mg, Geometric Mean, Cohort 3A (Fasting), 400 mg KAR5585 single oral dose, fasting
[2] = 400 mg, Geometric Mean, Cohort 3B (Fed), 400 mg KAR5585 single oral dose, fed
[3] = 400 mg, KAR5417 after 400 mg KAR5585 single oral, fasted, Cohort 3A, Geo. Mean
[4] = 400 mg, KAR5417 after 400 mg KAR5585 single oral, fasted, Cohort 3A, Mean
[5] = 400 mg, KAR5417 after 400 mg KAR5585 single oral, fed, Cohort 3B, Geo. Mean
[6] = 400 mg, KAR5417 after 400 mg KAR5585 single oral, fed, Cohort 3B, Mean
[7] = 700 mg, KAR5417 after 700 mg KAR5585 single oral, fasted, Cohort 4, Geo. Mean
[8] = 700 mg, KAR5417 after 700 mg KAR5585 single oral, fasted, Cohort 4, Mean
[9] = 1200 mg, KAR5417 after 1200 mg KAR5585 single oral, fasted, Cohort 5, Geo. Mean
[10] = 1200 mg, KAR5417 after 1200 mg KAR5585 single oral, fasted, Cohort 5, Mean
[11] = 2000 mg, KAR5417 after 2000 mg KAR5585 single oral, fasted, Cohort 6, Geo. Mean
[12] = 2000 mg, KAR5417 after 2000 mg KAR5585 single oral, fasted, Cohort 6, Mean

Procedure: Food effect was to be evaluated in Part 1, Period 2. Part 2 was permitted to begin before Part 1 was completed and, in each part, the data from each dose Cohort were to be reviewed for safety before the next dose Cohort was enrolled.
Part 1 had 6 Cohorts of 12 subjects each (for a total of 72 subjects) and Part 2 had 4 Cohorts of 12 subjects each (for a total of 48 subjects). In Part 1, the 12 subjects in Cohort 3 (400 mg)were studied twice, once under fasting conditions (Period 1) and once under fed conditions (Period 2) for food-effect assessment.
Pharmacokinetic data were to be summarized descriptively.

Work on `Nc1nc(O[C@H](c2ccc(Cl)cc2-c2ccccc2)C(F)(F)F)cc(N2CCC3(CC2)CN[C@H](C(=O)O)C3)n1` [KAR5417, (S)-8-(2-amino-6-((R)-1-(5-chloro-[1,1T-biphenyl]-2-yl)-2,2,2-trifluoroeth-oxy)pyrimidin-4-yl)-2,8-diazaspiro[4.5]decane-3-carboxylic acid] yielded an AUC(0-inf) (400 mg, AUC0-inf, Geometric Mean, Cohort 3A (Fasting), 400 mg KAR5585 single oral dose, fasting) of 3280 ng·h/mL, an AUC(0-inf) (400 mg, AUC0-inf, Geometric Mean, Cohort 3B (Fed), 400 mg KAR5585 single oral dose, fed) of 6630 ng·h/mL and an AUC [1] of 3120 ng·h/mL. It also gave an AUC [2] of 6360 ng·h/mL, an AUC [3] of 3120 ng·h/mL and an AUC [4] of 3500 ng·h/mL. For the same molecule, the AUC [5] was 6360 ng·h/mL, the AUC [6] was 6440 ng·h/mL and the AUC(0-inf) (400 mg, AUC0-∞, KAR5417 after 400 mg KAR5585 single oral, fasted, Cohort 3A, Geo. Mean) was 3280 ng·h/mL. It also gave an AUC(0-inf) (400 mg, AUC0-∞, KAR5417 after 400 mg KAR5585 single oral, fasted, Cohort 3A, Mean) of 3650 ng·h/mL, an AUC(0-inf) (400 mg, AUC0-∞, KAR5417 after 400 mg KAR5585 single oral, fed, Cohort 3B, Geo. Mean) of 6630 ng·h/mL and an AUC(0-inf) (400 mg, AUC0-∞, KAR5417 after 400 mg KAR5585 single oral, fed, Cohort 3B, Mean) of 6710 ng·h/mL. It also gave a concentration at 12 h (400 mg, C12, KAR5417 after 400 mg KAR5585 single oral, fasted, Cohort 3A, Geo. Mean) of 75.2 ng/mL, a concentration at 12 h (400 mg, C12, KAR5417 after 400 mg KAR5585 single oral, fasted, Cohort 3A, Mean) of 82.5 ng/mL and a concentration at 12 h (400 mg, C12, KAR5417 after 400 mg KAR5585 single oral, fed, Cohort 3B, Geo. Mean) of 165 ng/mL. The concentration at 12 h (400 mg, C12, KAR5417 after 400 mg KAR5585 single oral, fed, Cohort 3B, Mean) was 169 ng/mL, the Cmax [1] was 444 ng/mL and the Cmax [2] was 831 ng/mL. The Cmax [3] was 444 ng/mL, the Cmax [4] was 485 ng/mL and the Cmax [5] was 831 ng/mL. It also gave a Cmax [6] of 860 ng/mL, an AUC(0-t) (400 mg, Plasma AUC0-96, KAR5417 in plasma, 400 mg (fasted) KAR5585 single oral dose, mean) of 3630 ng·h/mL and an AUC(0-t) (400 mg, Plasma AUC0-96, KAR5417 in plasma, 400 mg (fed) KAR5585 single oral dose, mean) of 6590 ng·h/mL. It also gave a half-life (400 mg, t1/2, KAR5417 after 400 mg KAR5585 single oral, fasted, Cohort 3A, Geo. Mean) of 9.29 h, a half-life (400 mg, t1/2, KAR5417 after 400 mg KAR5585 single oral, fasted, Cohort 3A, Mean) of 11.3 h and a half-life (400 mg, t1/2, KAR5417 after 400 mg KAR5585 single oral, fed, Cohort 3B, Geo. Mean) of 19.8 h. The half-life (400 mg, t1/2, KAR5417 after 400 mg KAR5585 single oral, fed, Cohort 3B, Mean) was 20.5 h, the Tmax (400 mg, tmax, KAR5417 after 400 mg KAR5585 single oral, fasted, Cohort 3A, Median) was 4 h and the Tmax (400 mg, tmax, KAR5417 after 400 mg KAR5585 single oral, fed, Cohort 3B, Median) was 4 h. For the same molecule, the AUC(0-t) (700 mg, AUC0-12, KAR5417 after 700 mg KAR5585 single oral, fasted, Cohort 4, Geo. Mean) was 3050 ng·h/mL, the AUC(0-t) (700 mg, AUC0-12, KAR5417 after 700 mg KAR5585 single oral, fasted, Cohort 4, Mean) was 4350 ng·h/mL and the AUC(0-t) (700 mg, AUC0-24, KAR5417 after 700 mg KAR5585 single oral, fasted, Cohort 4, Geo. Mean) was 3720 ng·h/mL. It also gave an AUC(0-t) (700 mg, AUC0-24, KAR5417 after 700 mg KAR5585 single oral, fasted, Cohort 4, Mean) of 5310 ng·h/mL, an AUC [7] of 3870 ng·h/mL and an AUC [8] of 5840 ng·h/mL. For the same molecule, the AUC(0-inf) (700 mg, AUC0-∞, KAR5417 after 700 mg KAR5585 single oral, fasted, Cohort 4, Geo. Mean) was 4170 ng·h/mL, the AUC(0-inf) (700 mg, AUC0-∞, KAR5417 after 700 mg KAR5585 single oral, fasted, Cohort 4, Mean) was 6020 ng·h/mL and the concentration at 12 h (700 mg, C12, KAR5417 after 700 mg KAR5585 single oral, fasted, Cohort 4, Geo. Mean) was 93.8 ng/mL. The concentration at 12 h (700 mg, C12, KAR5417 after 700 mg KAR5585 single oral, fasted, Cohort 4, Mean) was 144 ng/mL, the Cmax [7] was 544 ng/mL and the Cmax [8] was 778 ng/mL. The AUC(0-t) (700 mg, Plasma AUC0-96, KAR5417 in plasma, 700 mg KAR5585 single oral dose, mean) was 5990 ng·h/mL, the half-life (700 mg, t1/2, KAR5417 after 700 mg KAR5585 single oral, fasted, Cohort 4, Mean) was 13.5 h and the Tmax (700 mg, tmax, KAR5417 after 700 mg KAR5585 single oral, fasted, Cohort 4, Median) was 4 h. The AUC(0-t) (1200 mg, AUC0-12, KAR5417 after 1200 mg KAR5585 single oral, fasted, Cohort 5, Geo. Mean) was 4580 ng·h/mL, the AUC(0-t) (1200 mg, AUC0-12, KAR5417 after 1200 mg KAR5585 single oral, fasted, Cohort 5, Mean) was 5350 ng·h/mL and the AUC(0-t) (1200 mg, AUC0-24, KAR5417 after 1200 mg KAR5585 single oral, fasted, Cohort 5, Geo. Mean) was 5810 ng·h/mL. It also gave an AUC(0-t) (1200 mg, AUC0-24, KAR5417 after 1200 mg KAR5585 single oral, fasted, Cohort 5, Mean) of 6790 ng·h/mL, an AUC [9] of 6580 ng·h/mL and an AUC [10] of 7700 ng·h/mL. It also gave an AUC(0-inf) (1200 mg, AUC0-∞, KAR5417 after 1200 mg KAR5585 single oral, fasted, Cohort 5, Geo. Mean) of 6880 ng·h/mL, an AUC(0-inf) (1200 mg, AUC0-∞, KAR5417 after 1200 mg KAR5585 single oral, fasted, Cohort 5, Mean) of 7970 ng·h/mL and a concentration at 12 h (1200 mg, C12, KAR5417 after 1200 mg KAR5585 single oral, fasted, Cohort 5, Geo. Mean) of 175 ng/mL. For the same molecule, the concentration at 12 h (1200 mg, C12, KAR5417 after 1200 mg KAR5585 single oral, fasted, Cohort 5, Mean) was 213 ng/mL, the Cmax [9] was 764 ng/mL and the Cmax [10] was 896 ng/mL. The AUC(0-t) (1200 mg, Plasma AUC0-96, KAR5417 in plasma, 1200 mg KAR5585 single oral dose, mean) was 7910 ng·h/mL, the half-life (1200 mg, t1/2, KAR5417 after 1200 mg KAR5585 single oral, fasted, Cohort 5, Geo. Mean) was 14 h and the half-life (1200 mg, t1/2, KAR5417 after 1200 mg KAR5585 single oral, fasted, Cohort 5, Mean) was 14.9 h. For the same molecule, the Tmax (1200 mg, tmax, KAR5417 after 1200 mg KAR5585 single oral, fasted, Cohort 5, Median) was 6 h, the AUC(0-t) (2000 mg, AUC0-12, KAR5417 after 2000 mg KAR5585 single oral, fasted, Cohort 6, Geo. Mean) was 6550 ng·h/mL and the AUC(0-t) (2000 mg, AUC0-12, KAR5417 after 2000 mg KAR5585 single oral, fasted, Cohort 6, Mean) was 6910 ng·h/mL. For the same molecule, the AUC(0-t) (2000 mg, AUC0-24, KAR5417 after 2000 mg KAR5585 single oral, fasted, Cohort 6, Geo. Mean) was 8520 ng·h/mL, the AUC(0-t) (2000 mg, AUC0-24, KAR5417 after 2000 mg KAR5585 single oral, fasted, Cohort 6, Mean) was 9080 ng·h/mL and the AUC [11] was 9880 ng·h/mL. For the same molecule, the AUC [12] was 10600 ng·h/mL, the AUC(0-inf) (2000 mg, AUC0-∞, KAR5417 after 2000 mg KAR5585 single oral, fasted, Cohort 6, Geo. Mean) was 10200 ng·h/mL and the AUC(0-inf) (2000 mg, AUC0-∞, KAR5417 after 2000 mg KAR5585 single oral, fasted, Cohort 6, Mean) was 10900 ng·h/mL. It also gave a concentration at 12 h (2000 mg, C12, KAR5417 after 2000 mg KAR5585 single oral, fasted, Cohort 6, Geo. Mean) of 280 ng/mL, a concentration at 12 h (2000 mg, C12, KAR5417 after 2000 mg KAR5585 single oral, fasted, Cohort 6, Mean) of 354 ng/mL and a Cmax [11] of 1030 ng/mL. The Cmax [12] was 1080 ng/mL, the AUC(0-t) (2000 mg, Plasma AUC0-96, KAR5417 in plasma, 2000 mg KAR5585 single oral dose, mean) was 10700 ng·h/mL and the half-life (2000 mg, t1/2, KAR5417 after 2000 mg KAR5585 single oral, fasted, Cohort 6, Geo. Mean) was 22.1 h. The half-life (2000 mg, t1/2, KAR5417 after 2000 mg KAR5585 single oral, fasted, Cohort 6, Mean) was 22.6 h, the Tmax (2000 mg, tmax, KAR5417 after 2000 mg KAR5585 single oral, fasted, Cohort 6, Median) was 5 h and the Tmax (median tmax, range across cohorts, single oral 100-2000 mg KAR5585, fasting cohorts) was 3 to 6 h. For the same molecule, the “time by which all subjects had measurable concentrations” value (postdose, single oral KAR5585) was ≤ 0.25 h, the “time concentrations remained above the LLOQ” value (single 100 mg KAR5585, fasting) was “up to 12 hours” and the “time concentrations remained above the LLOQ” value (single 200 mg KAR5585, fasting) was ≤ 24 h. For the same molecule, the “time concentrations remained above the LLOQ / measurable” value (single 400 mg KAR5585, fasting) was ≤ 36 h, the “time concentrations remained above the LLOQ” value (single 700 mg KAR5585, fasting) was ≤ 48 h and the “time concentrations remained above the LLOQ” value (single 1200 mg KAR5585, fasting) was ≤ 48 h. The “time concentrations remained above the LLOQ” value (single 2000 mg KAR5585, fasting) was ≤ 72 h, the “dose proportionality of AUC0-inf and Cmax (power model, 95% CI of slope)” value (single dose range 100 to 2000 mg KAR5585, fasting) was “dose proportionality was concluded” and the “plasma concentrations of KAR5417 relative to plasma concentrations of KAR5585” value (single oral KAR5585, fasting) was “approximately 10 fold”.
